In US7932283B2, “Fungicide N-cyclopropyl-sulfonylamide derivatives” (Bayer Cropscience AG, priority 2006, dated 2011):
Values belong to the compound of their own block, whether it stands above or below them.

Assay: logP by HPLC on reversed-phase column (C 18), EEC Directive 79/B31 Annex V.A8, methods A and B
Assay type: physicochemical
Details: for chromatographic logP: reversed-phase HPLC column (C 18)
Description: Calibration was carried out using unbranched alkan-2-ones (having 3 to 16 carbon atoms) with known logP values (determination of the logP values by the retention times using linear interpolation between two successive alkanones).

[1] = HPLC reversed-phase C 18, method B: 40° C., 0.1% aqueous formic acid and acetonitrile, linear gradient 10% to 90% acetonitrile
[2] = HPLC reversed-phase C 18, method A: 43° C., 0.1% aqueous phosphoric acid, acetonitrile, linear gradient 10% to 90% acetonitrile
[3] = LogP method B: HPLC reversed-phase C 18, 40° C., 0.1% aqueous formic acid / acetonitrile, linear gradient 10% to 90% acetonitrile
[4] = LogP method A: HPLC reversed-phase C 18, 43° C., 0.1% aqueous phosphoric acid / acetonitrile, linear gradient 10% to 90% acetonitrile

SMILES: Cc1nc(C(F)(F)F)c(C(=O)N(C2CC2)S(=O)(=O)c2ccc(Oc3ccccc3)cc2)s1 [Compound 66]
chromatographic logP [1]: 4.4

SMILES: COc1nn(C)cc1C(=O)N(C1CC1)S(=O)(=O)c1ccc(Oc2ccc(C)cc2)cc1Br [Compound 467]
chromatographic logP [3]: 3.7

SMILES: Cc1oncc1C(=O)N(C1CC1)S(=O)(=O)c1ccc(Oc2ccccc2)cc1 [Compound 606]
chromatographic logP [3]: 3.7

SMILES: CCOc1nn(C)cc1C(=O)N(C1CC1)S(=O)(=O)C1C=CC(Oc2ccc(F)c(O)c2)=CC1O (stereo not shown) [Compound 536]
chromatographic logP [3]: 4

SMILES: Cc1c(C(=O)N(C2CC2)S(=O)(=O)c2ccc(C(F)(F)F)cc2)sc(=O)n1C [Compound 612]
chromatographic logP [4]: 2.01

SMILES: CCc1c(C(=O)N(C2CC2)S(=O)(=O)c2ccc(C(F)(F)F)cc2)sc(=O)n1C1CC1 [Compound 616]
chromatographic logP [4]: 2.01

SMILES: COc1nn(C)cc1C(=O)N(C1CC1)S(=O)(=O)c1cnn(C)c1O [Compound 444]
chromatographic logP [3]: 1.7

SMILES: Cn1cc(C(=O)N(C2CC2)S(=O)(=O)c2ccc(Oc3ccc(Br)cc3)cc2)c(C(F)(F)F)c1 [Compound 39]
chromatographic logP [1]: 4.5

SMILES: COc1nn(C)cc1C(=O)N(C1CC1)S(=O)(=O)c1ccc(Oc2cccc(O)c2)cc1Br [Compound 468]
chromatographic logP [3]: 3.7

SMILES: Cc1nn(C)c(C)c1C(=O)N(C1CC1)S(=O)(=O)c1ccc(C(C)(C)C)cc1 [Compound 414]
chromatographic logP [4]: 3.41

SMILES: CCc1nn(C)c(F)c1C(=O)N(C1CC1)S(=O)(=O)c1ccc(Oc2ccc(C(F)(F)F)cc2)cc1 [Compound 389]
chromatographic logP [1]: 4.3

SMILES: COc1nn(C)cc1C(=O)N(C1CC1)S(=O)(=O)c1ccc(Oc2ccc(C)c(O)c2)cc1Br [Compound 470]
chromatographic logP [3]: 3.8

SMILES: Cn1nc(C(F)F)c(C(=O)N(C2CC2)S(=O)(=O)c2ccccc2C(F)(F)F)c1F [Compound 106]
chromatographic logP [1]: 3

SMILES: CCCOc1nn(C)cc1C(=O)N(C1CC1)S(=O)(=O)c1ccc(Oc2ccc(F)c(O)c2)cc1Br [Compound 304]
LogP [1]: 5.0

SMILES: COc1ccc(S(=O)(=O)N(C(=O)c2cn(C)nc2OC)C2CC2)cc1OC [Compound 395]
chromatographic logP [1]: 1.9

SMILES: Cc1ccsc1C(=O)N(C1CC1)S(=O)(=O)c1cccc(O)c1 [Compound 13]
chromatographic logP [2]: 3.64

SMILES: CCOc1nn(C)cc1C(=O)N(C1CC1)S(=O)(=O)C1C=CC(Oc2ccc(Br)c(O)c2)=CC1O (stereo not shown) [Compound 544]
chromatographic logP [3]: 4.3

SMILES: Cc1c(C(=O)N(C2CC2)S(=O)(=O)c2ccc(C(C)(C)C)cc2)sc(=O)n1C [Compound 624]
chromatographic logP [4]: 2.01

SMILES: Cn1nc(C(F)(F)F)c(C(=O)N(C2CC2)S(=O)(=O)c2ccc(Oc3ncc(C(F)(F)F)cc3O)cc2)c1F [Compound 372]
chromatographic logP [1]: 4.2

SMILES: Cc1c(C(=O)N(C2CC2)S(=O)(=O)c2cccc(O)c2)sc(=O)n1Cc1ccccc1 [Compound 613]
chromatographic logP [4]: 2.01

SMILES: CCOc1nn(C)cc1C(=O)N(C1CC1)S(=O)(=O)c1ccc(Oc2cccc(O)c2)cc1O [Compound 534]
chromatographic logP [3]: 3.9

SMILES: COCCn1c(C)c(C(=O)N(C2CC2)S(=O)(=O)c2cccc(O)c2)sc1=O [Compound 609]
chromatographic logP [4]: 2.01

SMILES: CCCCc1ccc(S(=O)(=O)N(C(=O)c2c(C(F)(F)F)nn(C)c2F)C2CC2)cc1 [Compound 359]
chromatographic logP [1]: 4.3

SMILES: O=C(c1cccnc1F)N(C1CC1)S(=O)(=O)c1cccc(O)c1O [Compound 649]
chromatographic logP [3]: 2.4

SMILES: Cc1nocc1C(=O)N(C1CC1)S(=O)(=O)c1ccc(Oc2ccc(Br)cc2)cc1 [Compound 602]
chromatographic logP [3]: 4.2

SMILES: CCCOc1nn(C)cc1C(=O)N(C1CC1)S(=O)(=O)c1ccc(Oc2ccc(OC)cc2)cc1Br [Compound 289]
chromatographic logP [1]: 4

SMILES: O=C(c1cc(Br)c(Br)s1)N(C1CC1)S(=O)(=O)c1ccccc1O [Compound 15]
chromatographic logP [2]: 4.07

SMILES: CCCOc1nn(C)cc1C(=O)N(C1CC1)S(=O)(=O)c1ccc(Oc2ccc(Cl)c(Cl)c2)cc1Br [Compound 303]
chromatographic logP [1]: 4.9

SMILES: O=C(c1ccsc1I)N(C1CC1)S(=O)(=O)c1cccc(O)c1O [Compound 19]
chromatographic logP [1]: 3.8

SMILES: CCOC(=O)c1[nH]c(C)c(C(=O)N(C2CC2)S(=O)(=O)c2cccc(O)c2O)c1C [Compound 34]
chromatographic logP [1]: 3.5

SMILES: CCCOc1nn(C)cc1C(=O)N(C1CC1)S(=O)(=O)c1ccc(Oc2cc(O)cc(O)c2)cc1Br [Compound 305]
chromatographic logP [1]: 5.1

SMILES: CCCOc1nn(C)cc1C(=O)N(C1CC1)S(=O)(=O)c1ccc(Oc2ccc(OC)c(OC)c2)cc1Br [Compound 288]
chromatographic logP [1]: 3.6

SMILES: Cc1ncc(C(=O)N(C2CC2)S(=O)(=O)c2ccc(O)c(O)c2)s1 [Compound 63]
chromatographic logP [2]: 3.33

SMILES: O=C(c1cccnc1O)N(C1CC1)S(=O)(=O)c1ccc(O)c(O)c1O [Compound 647]
chromatographic logP [3]: 3.7

SMILES: CCCCCc1ccc(Oc2ccc(S(=O)(=O)N(C(=O)c3cn(C)nc3OCC)C3CC3)c(Br)c2)cc1 [Compound 560]
chromatographic logP [3]: 5.6

SMILES: CCCOc1nn(C)cc1C(=O)N(C1CC1)S(=O)(=O)c1ccc(Oc2ccc(-n3cncn3)cc2)cc1Br [Compound 286]
chromatographic logP [1]: 3

SMILES: O=C(c1cccnc1Cl)N(C1CC1)S(=O)(=O)c1ccccc1O [Compound 644]
chromatographic logP [4]: 2.58

SMILES: O=C(c1cccnc1)N(C1CC1)S(=O)(=O)c1ccc(O)c(O)c1 [Compound 639]
chromatographic logP [4]: 2.91

SMILES: CC(C)c1c(C(=O)N(C2CC2)S(=O)(=O)c2cccc(O)c2)sc(=O)n1C1CC1 [Compound 617]
chromatographic logP [4]: 2.01

SMILES: CCc1onc(C(C)C)c1C(=O)N(C1CC1)S(=O)(=O)c1cccc(O)c1 [Compound 589]
chromatographic logP [4]: 4.18

SMILES: Cc1c(C(=O)N(C2CC2)S(=O)(=O)c2ccccc2O)cnn1-c1ccccc1 [Compound 201]
chromatographic logP [2]: 2.97

SMILES: COc1nn(C)cc1C(=O)N(C1CC1)S(=O)(=O)c1ccc(Oc2cccc(C(F)(F)F)c2F)cc1Br [Compound 471]
chromatographic logP [3]: 3.8

SMILES: CCOc1nn(C)cc1C(=O)N(C1CC1)S(=O)(=O)C1C=CC(Oc2cccc(C(F)(F)F)c2)=C(O)C1 (stereo not shown) [Compound 549]
chromatographic logP [3]: 4.4

SMILES: CCCOc1nn(C)cc1C(=O)N(C1CC1)S(=O)(=O)c1ccc(Oc2cccc(C(F)(F)F)c2)cc1Br [Compound 297]
chromatographic logP [1]: 4.5

SMILES: CCCOc1nn(C)cc1C(=O)N(C1CC1)S(=O)(=O)c1ccc(Oc2cccc(N(C)C)c2)cc1Br [Compound 292]
chromatographic logP [1]: 4.4

SMILES: COc1nn(C)cc1C(=O)N(C1CC1)S(=O)(=O)c1ccc(Oc2cccc(OC(F)(F)F)c2)cc1Br [Compound 476]
chromatographic logP [3]: 4

SMILES: CCOc1nn(C)cc1C(=O)N(C1CC1)S(=O)(=O)c1ccc(Oc2ccc(OC)cc2)cc1O [Compound 529]
chromatographic logP [3]: 3.5

SMILES: CCCOc1nn(C)cc1C(=O)N(C1CC1)S(=O)(=O)c1ccc(Oc2ccc3ccc(=O)oc3c2)cc1Br [Compound 287]
chromatographic logP [1]: 3.4

SMILES: O=C(c1cccnc1O)N(C1CC1)S(=O)(=O)c1cccc(O)c1O [Compound 645]
chromatographic logP [3]: 3.2

The next lines start with the values.

chromatographic logP [1]: 4.3
SMILES: Cn1nc(-c2ccccc2)c(C(=O)N(C2CC2)S(=O)(=O)c2ccc(O)c(O)c2O)c1F [Compound 100]

chromatographic logP [2]: 2.83
SMILES: Cc1nn(C)c(F)c1C(=O)N(C1CC1)S(=O)(=O)c1ccc(O)cc1 [Compound 190]

chromatographic logP [4]: 3.63
SMILES: Cc1nn(C)c(O)c1C(=O)N(C1CC1)S(=O)(=O)c1ccc(O)c(O)c1 [Compound 407]

chromatographic logP [4]: 1.97
SMILES: Cn1nc(C(=O)N(C2CC2)S(=O)(=O)c2ccccc2O)n(C)c1=O [Compound 608]

chromatographic logP (Method A: 43° C., 0.1% aqueous phosphoric acid, acetonitrile): 3.27
SMILES: Cc1nn(C)c(F)c1C(=O)N(C1CC1c1ccccc1)S(=O)(=O)c1ccccc1O (stereo not shown) [Compound 676]

chromatographic logP [1]: 3.1
SMILES: CC(C)c1nn(C)c(F)c1C(=O)N(C1CC1)S(=O)(=O)c1ccccc1O [Compound 95]

chromatographic logP [4]: 2.01
SMILES: Cc1c(C(=O)N(C2CC2)S(=O)(=O)c2ccc(O)c(O)c2)sc(=O)n1C [Compound 623]

chromatographic logP [1]: 2.3
SMILES: CCc1nn(C)c(F)c1C(=O)N(C1CC1)S(=O)(=O)c1c(C)nn(C)c1O [Compound 382]

chromatographic logP [1]: 2.8
SMILES: Cn1nc(C(F)F)c(C(=O)N(C2CC2)S(=O)(=O)c2ccccc2O)c1F [Compound 103]

chromatographic logP [1]: 3.3
SMILES: Cc1cc(C(=O)N(C2CC2)S(=O)(=O)c2ccc(O)c(O)c2O)nn1C [Compound 75]

chromatographic logP [2]: 1.95
SMILES: Cc1nn(C)cc1C(=O)N(C1CC1)S(=O)(=O)c1ccccc1O [Compound 197]

chromatographic logP [1]: 2.6
SMILES: Cc1cc(O)cc(O)c1S(=O)(=O)N(C(=O)c1c(C(F)(F)F)nn(C)c1F)C1CC1 [Compound 367]

chromatographic logP [2]: 3.27
SMILES: Cn1nc(C(F)(F)F)c(C(=O)N(C2CC2)S(=O)(=O)c2ccccc2O)c1O [Compound 208]

chromatographic logP [1]: 3.8
SMILES: COc1nn(C)c(O)c1C(=O)N(C1CC1)S(=O)(=O)c1ccc(O)c(O)c1O [Compound 282]

chromatographic logP [1]: 3.1
SMILES: Cn1nc(C(F)(F)F)c(C(=O)N(C2CC2)S(=O)(=O)c2ccc(F)cc2O)c1F [Compound 362]

chromatographic logP [1]: 4.1
SMILES: Cn1nc(C(F)(F)F)c(C(=O)N(C2CC2)S(=O)(=O)c2ccc(O)c(O)c2O)c1F [Compound 108]

chromatographic logP [1]: 3.2
SMILES: Cn1nc(C(F)(F)F)c(C(=O)N(C2CC2)S(=O)(=O)c2ccc(F)cc2Br)c1F [Compound 368]

chromatographic logP [3]: 3.6
SMILES: Cc1cnn(C)c1C(=O)N(C1CC1)S(=O)(=O)c1ccc(O)c(O)c1O [Compound 659]

chromatographic logP [3]: 3.7
SMILES: Cc1nn(C)c(C(=O)N(C2CC2)S(=O)(=O)c2cccc(O)c2O)c1Cl [Compound 586]

chromatographic logP [2]: 2.91
SMILES: Cc1nn(C)c(F)c1C(=O)N(C1CC1)S(=O)(=O)c1cc(O)ccc1O [Compound 191]

chromatographic logP [1]: 3.9
SMILES: CCc1nn(C)c(F)c1C(=O)N(C1CC1)S(=O)(=O)c1cc(O)cc(O)c1 [Compound 376]
